Measurements reported in patent US7695930B2, “Method for the detection, identification and/or quantification of microoganisms with peptidase activity using phenoxazinone derivatives as enzyme substrates” (Biomerieux, priority 2003, dated 2010).

What was measured:
Format in all cases: cell-based
Details in all cases: 50 mg/l
Staphylococcus aureus = experiment: Leucine-peptidase detection on agar medium (Example 11)
Description: (§1) The detection medium was prepared by mixing 1.4 g of biogelytone (bioMérieux), 0.84 g of meat extract (bioMérieux), 2.24 g of NaCl (Merck), 280 μl of a solution of IPTG (isopropylthio-β-D-galactopyranoside, BIOSYNTH) in water (concentration 10 g/l) and 4.2 g of European agar (bioMérieux).
(§2) The substrate of the invention obtained in Example 2, in which the amino acid is leucine (leucine-9-aminobenzo[a]phenoxazin-5-one or Leu-ABP), or else a substrate of the prior art, which is leucine-aminomethylcoumarin (Leu-AMC, BACHEM), was then added in the following way: 280 ml of osmosed water were added to the medium, and the mixture was melted in a waterbath at 100° C. The mixture was autoclaved for 15 min at 121° C. and cooled to 50° C. in a waterbath.
(§3) The medium was then poured into Petri dishes.
(§4) The coloration of these colonies, the diffusion, and also the intensity of this coloration were noted.
(§5) The results were expressed as intensity of coloration using an arbitrary scale ranging from 0 to 4 as a basis and also as diffusion also using an arbitrary scale ranging from 0 to 4 as a basis.

Enterobacter cloaccae = experiment: as above
Description: as §1, §2, §3, §4, §5

Candida albicans = experiment: as above
Description: as §1, §2, §3, §4, §5

Klebsellia pneumoniae = experiment: as above
Description: as §1, §2, §3, §4, §5

Citrobacter freundii = experiment: as above
Description: as §1, §2, §3, §4, §5

Pseudomonas aeruginosa = experiment: as above
Description: as §1, §2, §3, §4, §5

Enterococcus faecalis = experiment: as above
Description: as §1, §2, §3, §4, §5

Escherichia coli = experiment: as above
Description: as §1, §2, §3, §4, §5

Serratia marcescens = experiment: as above
Description: as §1, §2, §3, §4, §5

[1] = system: Enterobacter clocae (NCTC 11936); experiment: Alanine peptidase detection, substrates with one to three amino acids (Example 15); set-up: key to color of the colony: R=pink; RP=pale pink; I=colorless
Description: (§6) 1000 ml of Columbia medium was melted in a waterbath at 100° C. and autoclaved at 121° C. for 15 min. It was then cooled to 50° C. in a waterbath.
(§7) This medium was separated into 5 flasks of 200 ml, and then, added at 50° C., as substrates, was that of Example 2 for which A is: • medium 1: L-alanine (L-alanine-9-aminobenzo[a]phenoxazin-5-one or A-ABP), • medium 2: L-alanine-L-alanine (L-alanine-L-alanine-9-aminobenzo-[a]phenoxazin-5-one or AA-ABP), • medium 3: L-alanine-L-alanine-L-alanine (L-alanine-L-alanine-L-alanine-9-aminobenzo[a]phenoxazin-5-one or AAA-ABP), • medium 4: L-alanine-glycine (L-alanine-glycine-9-aminobenzo[a]phenoxazin-5-one or AG-ABP), and • medium 5: glycine-L-alanine (glycine-L-alanine-9-aminobenzo[a]phenoxazin-5-one or GA-ABP), each substrate being solubilized in DMSO and used at a final concentration of 50 mg/l.
as §3
(§8) Nine microorganism strains derived from the Applicant's collection, suspended in physiological saline, were seeded in colonies on the media prepared in point 15.1 above according to a multipoint inoculation in a proportion of 15 000 cfu/spot. The dishes were incubated at 37° C. for 48 hours. The colonies formed were examined visually after incubation for 24 and 48 hours.
(§9) The results are expressed in Tables 7 and 8 hereinafter according to the rules and the nomenclature stated in paragraph 11.3 and where R=pink, RP=pale pink and I=colorless.

[2] = system: Staphylococcus aureus (NCTC 6571); experiment: as above; set-up: key to color of the colony: R=pink; RP=pale pink; I=colorless
Description: as §6, §7, §3, §8, §9

[3] = system: Listeria monocytogenes (NCTC 11994); experiment: as above; set-up: key to color of the colony: R=pink; RP=pale pink; I=colorless
Description: as §6, §7, §3, §8, §9

[4] = system: Staphylococcus epidermis (NCTC 11047); experiment: as above; set-up: key to color of the colony: R=pink; RP=pale pink; I=colorless
Description: as §6, §7, §3, §8, §9

[5] = system: Acinetobacter baumannii (ATCC 19606); experiment: as above; set-up: key to color of the colony: R=pink; RP=pale pink; I=colorless
Description: as §6, §7, §3, §8, §9

[6] = system: Pseudomonas aerigunosa (NCTC 10038); experiment: as above; set-up: key to color of the colony: R=pink; RP=pale pink; I=colorless
Description: as §6, §7, §3, §8, §9

[7] = system: Micrococcus luteus (NCTC611); experiment: as above; set-up: key to color of the colony: R=pink; RP=pale pink; I=colorless
Description: as §6, §7, §3, §8, §9

[8] = system: Escherichia coli (NCTC 10418); experiment: as above; set-up: key to color of the colony: R=pink; RP=pale pink; I=colorless
Description: as §6, §7, §3, §8, §9

Cc1cc(=O)oc2cc(NC(=O)[C@@H](N)CC(C)C)ccc12 [Leu-AMC, leucine-aminomethylcoumarin, reference compound]
1.8 mm: growth diameter (Klebsellia pneumoniae; 24 h) | growth diameter (Klebsellia pneumoniae; 48 h) | growth diameter (Escherichia coli; 24 h) | growth diameter (Escherichia coli; 48 h)
3: intensity of coloration, scale 0 to 4 (Staphylococcus aureus; 48 h) | intensity of coloration, scale 0 to 4 (Enterobacter cloaccae; 24 h) | intensity of coloration, scale 0 to 4 (Enterobacter cloaccae; 48 h) | intensity of coloration, scale 0 to 4 (Klebsellia pneumoniae; 24 h) | intensity of coloration, scale 0 to 4 (Klebsellia pneumoniae; 48 h) | intensity of coloration, scale 0 to 4 (Citrobacter freundii; 24 h) | intensity of coloration, scale 0 to 4 (Citrobacter freundii; 48 h) | intensity of coloration, scale 0 to 4 (Pseudomonas aeruginosa; 48 h) | intensity of coloration, scale 0 to 4 (Escherichia coli; 24 h) | intensity of coloration, scale 0 to 4 (Escherichia coli; 48 h) | intensity of coloration, scale 0 to 4 (Serratia marcescens; 48 h)
1: intensity of coloration, scale 0 to 4 (Pseudomonas aeruginosa; 24 h)
0.8 mm: growth diameter (Enterobacter cloaccae; 24 h) | growth diameter (Enterobacter cloaccae; 48 h) | growth diameter (Citrobacter freundii; 24 h)
1.5: intensity of coloration, scale 0 to 4 (Candida albicans; 48 h) | intensity of coloration, scale 0 to 4 (Enterococcus faecalis; 48 h)
2.5: intensity of coloration, scale 0 to 4 (Staphylococcus aureus; 24 h)
0.7 mm: growth diameter (Serratia marcescens; 48 h)
0.5 mm: growth diameter (Candida albicans; 48 h) | growth diameter (Serratia marcescens; 24 h)
2 mm: growth diameter (Pseudomonas aeruginosa; 24 h) | growth diameter (Pseudomonas aeruginosa; 48 h)
1 mm: growth diameter (Citrobacter freundii; 48 h)
2: intensity of coloration, scale 0 to 4 (Serratia marcescens; 24 h)
1.7 mm: growth diameter (Staphylococcus aureus; 24 h) | growth diameter (Staphylococcus aureus; 48 h)
0.4 mm: growth diameter (Candida albicans; 24 h) | growth diameter (Enterococcus faecalis; 24 h) | growth diameter (Enterococcus faecalis; 48 h)
0.25: intensity of coloration, scale 0 to 4 (Candida albicans; 24 h)
0.5: intensity of coloration, scale 0 to 4 (Enterococcus faecalis; 24 h)

L-alanine-L-alanine-9-aminobenzo-[a]phenoxazin-5-one [AA-ABP]
0 mm: growth diameter ([7]; 24 h) | growth diameter ([7]; 48 h)
2 mm: growth diameter ([2]; 48 h) | growth diameter ([3]; 24 h) | growth diameter ([3]; 48 h) | growth diameter ([4]; 24 h) | growth diameter ([4]; 48 h)
R: color of the colony ([1]; 24 h) | color of the colony ([1]; 48 h) | color of the colony ([3]; 24 h) | color of the colony ([3]; 48 h) | color of the colony ([5]; 24 h) | color of the colony ([5]; 48 h) | color of the colony ([6]; 24 h) | color of the colony ([6]; 48 h) | color of the colony ([8]; 24 h) | color of the colony ([8]; 48 h)
3 mm: growth diameter ([1]; 24 h) | growth diameter ([1]; 48 h) | growth diameter ([2]; 24 h) | growth diameter ([5]; 24 h) | growth diameter ([5]; 48 h) | growth diameter ([6]; 24 h) | growth diameter ([6]; 48 h) | growth diameter ([8]; 24 h) | growth diameter ([8]; 48 h)
I: color of the colony ([2]; 24 h) | color of the colony ([2]; 48 h) | color of the colony ([4]; 24 h) | color of the colony ([4]; 48 h)

L-alanine-L-alanine-L-alanine-9-aminobenzo[a]phenoxazin-5-one [AAA-ABP]
R: color of the colony ([1]; 24 h) | color of the colony ([1]; 48 h) | color of the colony ([3]; 24 h) | color of the colony ([3]; 48 h) | color of the colony ([5]; 24 h) | color of the colony ([5]; 48 h) | color of the colony ([6]; 24 h) | color of the colony ([6]; 48 h) | color of the colony ([7]; 24 h) | color of the colony ([7]; 48 h) | color of the colony ([8]; 24 h) | color of the colony ([8]; 48 h)
2 mm: growth diameter ([3]; 24 h) | growth diameter ([3]; 48 h) | growth diameter ([4]; 24 h) | growth diameter ([4]; 48 h)
1 mm: growth diameter ([7]; 24 h)
3 mm: growth diameter ([1]; 24 h) | growth diameter ([1]; 48 h) | growth diameter ([2]; 24 h) | growth diameter ([2]; 48 h) | growth diameter ([5]; 24 h) | growth diameter ([5]; 48 h) | growth diameter ([6]; 24 h) | growth diameter ([6]; 48 h) | growth diameter ([7]; 48 h) | growth diameter ([8]; 24 h) | growth diameter ([8]; 48 h)
I: color of the colony ([2]; 24 h) | color of the colony ([2]; 48 h) | color of the colony ([4]; 24 h) | color of the colony ([4]; 48 h)

L-alanine-glycine-9-aminobenzo[a]phenoxazin-5-one [AG-ABP]
R: color of the colony ([1]; 24 h) | color of the colony ([1]; 48 h) | color of the colony ([5]; 48 h) | color of the colony ([6]; 48 h) | color of the colony ([7]; 48 h) | color of the colony ([8]; 24 h) | color of the colony ([8]; 48 h)
1 mm: growth diameter ([7]; 24 h)
I: color of the colony ([2]; 24 h) | color of the colony ([2]; 48 h) | color of the colony ([3]; 24 h) | color of the colony ([3]; 48 h) | color of the colony ([4]; 24 h) | color of the colony ([4]; 48 h) | color of the colony ([7]; 24 h)
3 mm: growth diameter ([1]; 24 h) | growth diameter ([1]; 48 h) | growth diameter ([2]; 24 h) | growth diameter ([2]; 48 h) | growth diameter ([3]; 48 h) | growth diameter ([4]; 24 h) | growth diameter ([4]; 48 h) | growth diameter ([5]; 24 h) | growth diameter ([5]; 48 h) | growth diameter ([6]; 24 h) | growth diameter ([6]; 48 h) | growth diameter ([7]; 48 h) | growth diameter ([8]; 24 h) | growth diameter ([8]; 48 h)
2 mm: growth diameter ([3]; 24 h)
RP: color of the colony ([5]; 24 h) | color of the colony ([6]; 24 h)

glycine-L-alanine-9-aminobenzo[a]phenoxazin-5-one [GA-ABP]
3 mm: growth diameter ([1]; 24 h) | growth diameter ([1]; 48 h) | growth diameter ([2]; 24 h) | growth diameter ([2]; 48 h) | growth diameter ([5]; 24 h) | growth diameter ([5]; 48 h) | growth diameter ([6]; 24 h) | growth diameter ([6]; 48 h) | growth diameter ([8]; 24 h) | growth diameter ([8]; 48 h)
2 mm: growth diameter ([3]; 24 h) | growth diameter ([3]; 48 h) | growth diameter ([4]; 48 h)
0 mm: growth diameter ([7]; 24 h) | growth diameter ([7]; 48 h)
1 mm: growth diameter ([4]; 24 h)
RP: color of the colony ([6]; 24 h)
I: color of the colony ([2]; 24 h) | color of the colony ([2]; 48 h) | color of the colony ([3]; 24 h) | color of the colony ([4]; 24 h) | color of the colony ([4]; 48 h)
R: color of the colony ([1]; 24 h) | color of the colony ([1]; 48 h) | color of the colony ([3]; 48 h) | color of the colony ([5]; 24 h) | color of the colony ([5]; 48 h) | color of the colony ([6]; 48 h) | color of the colony ([8]; 24 h) | color of the colony ([8]; 48 h)
